One experiment deals with AD transgenic animals. The experiment is described as follows: Nest building in 5XFAD AD transgenic animals. In kind it is in vivo, mice. As to conditions: 25 mg/kg orally 3 times a week for 4 weeks, 7 weeks of age, vs 5XFAD-Ctrl. On the procedure:
As described in Example 7, nest-building skill is one of the most reliable measurements of motor function. In this test, AD transgenic animals were orally treated 3 times a week for 4 weeks with 0.5% methylcellulose or ZLN005 (Sigma) at 25 mg/kg in 0.5% methylcellulose, starting at 3 weeks of age. At 7 weeks of age, animals were given cotton pads and the amount of cotton that was shredded over a 24-hour period was measured. […] Unpaired t-test was used for statistical analysis.

In another experiment the test system is HD transgenic mice. Briefly: Wheel-running test in HD transgenic animals (R6/2). As to conditions: HD transgenic (R6/2); 25 mg/kg orally 3 times a week for 4 weeks from 6 weeks of age; constant speed 5 rpm. In kind it is in vivo. Here is the method:
The wheel-running test in this example was performed similarly to that described in Example 8. HD transgenic animals (R6/2) were purchased from Jackson Laboratories. […] HD transgenic mice were orally treated 3 times a week for 4 weeks with either 0.5% methylcellulose (n=8) or ZLN005 (Sigma) at 25 mg/kg in 0.5% methylcellulose (n=7), starting at 6 weeks of age. Subsequently, at 10 weeks of age, these mice were subjected to 2 weeks of training on a treadmill at a constant speed of 5 rpm (rotations per minute). After the training, mice were tested for motor performance at a constant speed of 5 rpm. […] Unpaired t-test was used for statistical analysis.

With `CC(C)(C)c1ccc(-c2nc3ccccc3[nH]2)cc1` [ZLN005, 2-(4-tert-butylphenyl)-1H-benzimidazole], in the experiment on AD transgenic animals, the “nest building, amount of cotton shredded over 24 hours” value was “significantly increased the amount of cotton shredded”. This compound also registered a latency to fall in the experiment with HD transgenic mice of 110 s.

The record behind these values is patent US10966962B2, “Method for treating neurodegenerative diseases” (THE BOARD OF TRUSTEES OF THE LELAND STANFORD JUNIOR …, priority 2014, dated 2021).
